According to ChEMBL document CHEMBL4834431, “Design of Dimeric Bile Acid Derivatives as Potent and Selective Human NTCP Inhibitors” (J Med Chem, 2021):
The source made the active and inactive calls. No cut-off for these calls is given here.

Assays:
Hepatitis B virus [1] = assay: Antiviral activity against HBV infected in human HepG2-NTCP cells assessed as reduction in HBeAg secretion incubated for 24 hrs followed replacement with fresh medium and measured at day 5 post infection by ELISA; type: functional, organism-based
Hepatitis B virus [2] = assay: Antiviral activity against HBV infected in human HepG2-NTCP cells assessed as reduction in HBeAg secretion at 111 to 1000 nM incubated for 24 hrs followed by replacement with fresh medium and measured at day 5 post infection by ELISA; type: functional, organism-based; details: dose 111-1000 nM
Hepatitis B virus [3] = assay: Antiviral activity against HBV infected in human HepG2-NTCP cells assessed as reduction in intracellular HBV RNA level at 1 uM by qPCR analysis; type: functional, organism-based
Hepatitis B virus [4] = assay: Antiviral activity against HBV infected in human HepG2-NTCP cells assessed as reduction in intracellular accumulation of HBcAg at 1 uM by immunostaining based fluorescence microscopic analysis; type: functional, organism-based
Hepatitis B virus [5] = assay: Antiviral activity against HBV infected in human HepG2-NTCP cells assessed as reduction in intracellular accumulation of HBsAg at 1 uM by immunostaining based fluorescence microscopic analysis; type: functional, organism-based
Hepatitis delta virus = assay: Antiviral activity against HDV infected in human HepG2-NTCP cells assessed as reduction in intranuclear accumulation of HDV delta antigen at 5 uM incubated for 24 hrs followed by replacement with fresh medium and measured at day 5 post infection by DAPI staining based confocal microscopic analysis (reference value: 12.1 %); type: functional; set-up: scale not given: the % may be the effect or the level left
Hepatitis B virus [6] = assay: Antiviral activity against HBV infected in human HepG2-NTCP cells assessed as reduction in HBeAg secretion at 1 uM preincubated with compound followed by viral infection by ELISA; type: functional, organism-based
Hepatitis B virus [7] = assay: Antiviral activity against HBV infected in human HepG2-NTCP cells assessed as reduction in HBeAg secretion at 1 uM compound added along with viral infection by ELISA; type: functional, organism-based
Hepatitis B virus [8] = assay: Antiviral activity against HBV infected in human HepG2-NTCP cells assessed as reduction in HBeAg secretion at 1 uM pre-infected with virus followed by compound addition by ELISA; type: functional, organism-based
[9] = target: T1, Hepatic sodium/bile acid cotransporter (Homo sapiens, UniProt Q14973); assay: Inhibition of FITC-labeled HBV Pre-S1 polypeptide binding to human NTCP expressed in HepG2 cells after 2 to 3 hrs by confocal microscopic analysis; type: cell-based; details: time 2-3 hrs
T1 sequence (Q14973 whole entry): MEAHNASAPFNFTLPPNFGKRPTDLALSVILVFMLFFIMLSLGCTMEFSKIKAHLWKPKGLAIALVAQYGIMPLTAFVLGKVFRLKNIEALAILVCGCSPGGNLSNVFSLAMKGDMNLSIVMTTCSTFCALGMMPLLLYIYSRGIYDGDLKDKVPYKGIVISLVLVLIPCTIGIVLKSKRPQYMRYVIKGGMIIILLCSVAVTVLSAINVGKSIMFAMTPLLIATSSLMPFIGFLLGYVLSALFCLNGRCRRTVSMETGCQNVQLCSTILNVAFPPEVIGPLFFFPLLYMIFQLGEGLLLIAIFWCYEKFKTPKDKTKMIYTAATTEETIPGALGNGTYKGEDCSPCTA

HepG2 [10] = assay: Cytotoxicity against human HepG2 cells expressing NTCP assessed as reduction in cell viability at 10 uM after 48 hrs by alamar blue assay; type: cell-based; details: hepg2, 48 h
Hepatocyte = assay: Cytotoxicity against primary tupaia hepatocytes expressing NTCP assessed as reduction in cell viability at 100 uM after 48 hrs by Cell-Titer Glo assay; type: cell-based; details: scandentia
HepG2 [11] = assay: Effect on NTCP surface expression in human HepG2-NTCP cells assessed as reduction in NTCP surface expression level after 2 hrs by immunostaining based assay; type: functional, cell-based
[12] = target: T1, Hepatic sodium/bile acid cotransporter; assay: Inhibition of human NTCP-mediated [3H]-TCA uptake expressed in human HepG2 cells at 2 uM; type: cell-based; details: hepg2, 2 µM
[13] = target: T2, Ileal sodium/bile acid cotransporter (Homo sapiens, UniProt Q12908); assay: Inhibition of human ASBT-mediated [3H]-TCA uptake expressed in human HepG2 cells at 2 uM; type: cell-based; details: hepg2, 2 µM
T2 sequence (Q12908 whole entry): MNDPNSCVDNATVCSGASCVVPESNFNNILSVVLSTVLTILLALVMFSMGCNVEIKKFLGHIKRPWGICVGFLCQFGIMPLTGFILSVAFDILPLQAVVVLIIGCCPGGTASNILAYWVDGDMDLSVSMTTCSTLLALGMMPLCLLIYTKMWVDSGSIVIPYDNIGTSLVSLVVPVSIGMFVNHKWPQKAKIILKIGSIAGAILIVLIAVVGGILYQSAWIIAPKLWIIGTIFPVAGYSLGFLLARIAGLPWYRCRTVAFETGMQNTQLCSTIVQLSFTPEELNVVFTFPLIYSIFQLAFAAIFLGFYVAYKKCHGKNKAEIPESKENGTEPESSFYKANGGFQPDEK

[14] = target: T1, Hepatic sodium/bile acid cotransporter; assay: Inhibition of human NTCP-mediated [3H]-Estrone sulfate uptake expressed in human HepG2 cells at 2 uM; type: cell-based; details: hepg2, 2 µM
[15] = target: T3, Solute carrier organic anion transporter family member 1B1 (Homo sapiens, UniProt Q9Y6L6); assay: Inhibition of human OATP1B1-mediated [3H]-Estrone sulfate uptake expressed in human HepG2 cells at 2 uM; type: cell-based; details: hepg2, 2 µM
T3 sequence (Q9Y6L6 whole entry): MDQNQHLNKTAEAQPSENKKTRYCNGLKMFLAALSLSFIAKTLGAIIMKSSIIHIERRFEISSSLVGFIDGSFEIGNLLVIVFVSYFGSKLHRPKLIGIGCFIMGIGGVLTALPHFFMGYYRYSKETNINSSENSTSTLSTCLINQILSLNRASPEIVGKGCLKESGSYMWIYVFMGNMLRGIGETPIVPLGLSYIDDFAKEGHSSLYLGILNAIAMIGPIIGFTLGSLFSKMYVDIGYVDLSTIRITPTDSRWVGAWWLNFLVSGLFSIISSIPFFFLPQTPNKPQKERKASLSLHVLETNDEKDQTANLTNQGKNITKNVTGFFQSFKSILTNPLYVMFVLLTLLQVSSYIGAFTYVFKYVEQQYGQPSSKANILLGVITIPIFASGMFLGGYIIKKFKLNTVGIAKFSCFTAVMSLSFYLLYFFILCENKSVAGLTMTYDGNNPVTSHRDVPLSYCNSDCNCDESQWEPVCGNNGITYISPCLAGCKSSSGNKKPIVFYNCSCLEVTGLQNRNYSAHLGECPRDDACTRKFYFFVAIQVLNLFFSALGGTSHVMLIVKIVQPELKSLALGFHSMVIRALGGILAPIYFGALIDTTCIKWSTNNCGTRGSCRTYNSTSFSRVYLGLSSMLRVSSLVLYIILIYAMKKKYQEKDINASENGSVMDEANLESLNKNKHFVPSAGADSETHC

[16] = target: T1, Hepatic sodium/bile acid cotransporter; assay: Inhibition of human NTCP-mediated NQL-064 uptake expressed in human HepG2 cells incubated for 30 mins; type: cell-based; details: hepg2, 0.5 h
[17] = target: T1, Hepatic sodium/bile acid cotransporter; assay: Inhibition of human NTCP-mediated NQL-065 uptake expressed in human HepG2 cells incubated for 30 mins; type: cell-based; details: hepg2, 0.5 h
Hepatitis B virus [18] = assay: Antiviral activity against HBV infected in human HepG2-NTCP cells assessed as reduction in HBeAg secretion preincubated for 2 hrs followed by viral infection by ELISA; type: functional, organism-based
[19] = target: T1, Hepatic sodium/bile acid cotransporter; assay: Inhibition of human NTCP-mediated [3H]-TCA uptake expressed in human HepG2 cells; type: cell-based; details: human, hepg2
HepG2 [20] = assay: Inhibition of monkey NTCP-mediated [3H]-TCA uptake expressed in human HepG2 cells; type: cell-based; details: Macaca mulatta
[21] = target: T4, Hepatic sodium/bile acid cotransporter (Mus musculus, UniProt O08705); assay: Inhibition of mouse NTCP-mediated [3H]-TCA uptake expressed in human HepG2 cells; type: cell-based
T4 sequence (O08705 whole entry): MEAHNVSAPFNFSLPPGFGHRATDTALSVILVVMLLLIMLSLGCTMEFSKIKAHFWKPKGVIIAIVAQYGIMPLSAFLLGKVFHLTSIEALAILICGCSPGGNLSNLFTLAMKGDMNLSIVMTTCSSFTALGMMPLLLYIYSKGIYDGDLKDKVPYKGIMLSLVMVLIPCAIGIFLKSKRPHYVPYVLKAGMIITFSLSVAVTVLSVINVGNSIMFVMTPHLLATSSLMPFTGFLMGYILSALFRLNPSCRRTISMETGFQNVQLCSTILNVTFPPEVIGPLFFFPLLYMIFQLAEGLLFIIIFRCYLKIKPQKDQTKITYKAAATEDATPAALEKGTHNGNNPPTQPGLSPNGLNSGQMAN

HepG2 [22] = assay: Inhibition of tree shrew NTCP-mediated [3H]-TCA uptake expressed in human HepG2 cells; type: cell-based; details: Scandentia

SMILES: C[C@H](CCCN(CC[C@@H](C)[C@H]1CC[C@H]2[C@@H]3[C@@H](O)C[C@@H]4C[C@H](O)CC[C@]4(C)[C@H]3CC[C@]12C)CCS(=O)(=O)O)[C@H]1CC[C@H]2[C@@H]3[C@@H](O)C[C@@H]4C[C@H](O)CC[C@]4(C)[C@H]3CC[C@]12C
- IC50 (Hepatitis B virus [1]): 110 nM
- Activity (Hepatitis B virus [2]): Active
- Activity (Hepatitis B virus [3]): Active
- Activity (Hepatitis B virus [4]): Active
- Activity (Hepatitis B virus [5]): Active
- Activity (Hepatitis delta virus): 4.6%
- Activity (Hepatitis B virus [6]): Active
- Activity (Hepatitis B virus [7]): Active
- Activity (Hepatitis B virus [8]): inactive
- inhibition (INH) [9]: Active
- Activity (HepG2 [10]): Non-Toxic
- Activity (Hepatocyte): Non-Toxic
- Activity (HepG2 [11]): inactive
- inhibition (INH) [12]: Active
- inhibition (INH) [13]: Not Active
- inhibition (INH) [14]: Active
- inhibition (INH) [15]: Not Active
- inhibition (INH) [16]: Active
- inhibition (INH) [17]: Active
- Activity (Hepatitis B virus [18]): Active
- inhibition (INH) [19]: Active
- inhibition (HepG2 [20]): Active
- inhibition (INH) [21]: Active
- inhibition (HepG2 [22]): Active

SMILES: C[C@@H]1CCC(=O)NCCNC(=O)CC[C@@H](C)[C@H]2CC[C@H]3[C@@H]4[C@@H](O)C[C@@H]5C[C@@H](CC[C@]5(C)[C@H]4CC[C@]23C)NC(=O)CCCC(=O)N[C@@H]2CC[C@@]3(C)[C@@H](C2)C[C@H](O)[C@@H]2[C@@H]3CC[C@]3(C)[C@@H]1CC[C@@H]23
- IC50 (Hepatitis B virus [1]): 100 nM
- Activity (Hepatitis B virus [2]): Active
- Activity (Hepatitis B virus [3]): Active
- Activity (Hepatitis B virus [4]): Active
- Activity (Hepatitis B virus [5]): Active
- Activity (Hepatitis delta virus): 2.9%
- Activity (Hepatitis B virus [6]): Active
- Activity (Hepatitis B virus [7]): Active
- Activity (Hepatitis B virus [8]): inactive
- inhibition (INH) [9]: Active
- Activity (HepG2 [10]): Non-Toxic
- Activity (Hepatocyte): Non-Toxic
- Activity (HepG2 [11]): inactive
- inhibition (INH) [12]: Active
- inhibition (INH) [13]: Not Active
- inhibition (INH) [14]: Active
- inhibition (INH) [15]: Not Active

SMILES: C[C@H](CCC(=O)NCCS(=O)(=O)O)[C@H]1CC[C@H]2[C@@H]3[C@@H](O)C[C@@H]4C[C@H](OC(=O)CCCC(=O)O[C@@H]5CC[C@@]6(C)[C@@H](C5)C[C@H](O)[C@@H]5[C@@H]6CC[C@]6(C)[C@@H]([C@H](C)CCC(=O)NCCS(=O)(=O)O)CC[C@@H]56)CC[C@]4(C)[C@H]3CC[C@]12C
- IC50 (Hepatitis B virus [1]): 65 nM
- Activity (Hepatitis B virus [2]): Active
- Activity (Hepatitis B virus [3]): Active
- Activity (Hepatitis B virus [4]): Active
- Activity (Hepatitis B virus [5]): Active
- Activity (Hepatitis delta virus): 2.8%
- Activity (Hepatitis B virus [6]): Active
- Activity (Hepatitis B virus [7]): Active
- Activity (Hepatitis B virus [8]): inactive
- inhibition (INH) [9]: Active
- Activity (HepG2 [10]): Non-Toxic
- Activity (Hepatocyte): Non-Toxic
- Activity (HepG2 [11]): inactive
- inhibition (INH) [12]: Active
- inhibition (INH) [13]: Not Active
- inhibition (INH) [14]: Active
- inhibition (INH) [15]: Not Active
- inhibition (INH) [16]: Active
- inhibition (INH) [17]: Active
- Activity (Hepatitis B virus [18]): inactive
